{
  "source": "patent US10702571B2",
  "about": "“Materials for cathepsin B enhancement and methods of use” (The University of North Carolina at Pembroke, priority 2015, dated 2020)",
  "key": {"[1]": {"system": "30-kDa active form of cathepsin B (CatB-30)", "experiment": "Hippocampal slice cultures treated for two days, immunoblot for active cathepsin B", "format": "cell-based, rodent", "conditions": "for levels of cathepsin B (summary in words) / effect of the cathepsin B positive modulator PADK in combination with flavonol (summary in words): summary in the discussion; for increase in CatB-30 by flavonol alone: 5 μM flavonol alone for 2 days; for increase in cathepsin B (CatB-30): vs non-treated slices, statistically significant", "method": "FIG. 1. Cathepsin B positive modulation by flavonols—members of the flavonoid class of polyphenolic compounds. Flavonols of quercetin (Q), fisetin (F), and myricetin (M) were applied daily to rodent hippocampal slice cultures. After two (2) days, non-treated (NT) and treated slices were harvested, homogenates were prepared, and equal protein aliquots were assessed by immunoblot to label the 30-kDa active form of cathepsin B (CatB-30). […] FIG. 2. Cathepsin B positive modulation by Z-Phe-Pro-OH. The compound Z-Phe-Pro-OH was applied to rodent hippocampal slice cultures for two (2) days. […] FIG. 3. Quercetin enhances the effect of the cathepsin B positive modulator Z-Phe-Ala-diazomethylketone (PADK). Quercetin (Q) at 5 μM was added to the daily PADK treatments of rodent hippocampal slice cultures. After two (2) days, non-treated (NT) and treated slices were harvested, homogenates were prepared, and equal protein aliquots were assessed by immunoblot to label the active form of cathepsin B (CatB-30). Paired, two-tailed t-test among distinct immunoblots found a statistically significant enhancement of the PADK effect by quercetin (p=0.0167; pairing was effective: p=0.0014). An enhancement of 60-70% occurred, whereas 5 μM quercetin alone for 2 days caused only a 21% increase in CatB-30. FIG. 4. Fisetin and myricetin enhance the cathepsin B positive modulation produced by 10 μM Z-Phe-Ala-diazomethylketone (PADK). Fisetin at 5 μM (top graph) or myricetin at 5 μM (bottom graph) were added to the two daily PADK treatments of rodent hippocampal slice cultures. The non-treated (NT) and treated slices were harvested, homogenates were prepared, and equal protein aliquots were assessed by immunoblot to label the active form of cathepsin B (CatB-30). […] An enhancement of 95-140% was produced by fisetin, whereas 5 μM fisetin alone for two (2) days caused only a 40% increase in CatB-30. FIG. 5. Dose-dependent enhancement of the PADK effect on CatB by flavonols. Quercetin (Q), fisetin (F), and myricetin (M) at 5-10 μM were applied daily to rodent hippocampal slice cultures that were also treated with 3 μM PADK (top graph) or 10 μM PADK (bottom graph). After two (2) days, non-treated (NT) and treated slices were harvested, homogenates were prepared, and equal protein aliquots were assessed by immunoblot to label the 30-kDa active form of cathepsin B (CatB-30). […] The 10 μM PADK slices indicate that each flavonol at the lower concentration has an enhancing effect, but the effect is eliminated or reduced when the flavonol concentration is doubled. As described in FIG. 1, flavonols such as quercetin (Q), fisetin (F), and myricetin (M) were applied daily to rodent hippocampal slice cultures. After two (2) days, non-treated (NT) and treated slices were harvested, homogenates were prepared, and equal protein aliquots were assessed by immunoblot to label the 30-kDa active form of cathepsin B (CatB-30). As described in FIG. 2, the compound of Z-Phe-Pro-OH was applied to rodent hippocampal slice cultures for two (2) days. As described in FIG. 3, the flavonol of quercetin (Q) was added at 5 μM to the daily PADK treatments of rodent hippocampal slice cultures. After two (2) days, non-treated (NT) and treated slices were harvested, homogenates were prepared, and equal protein aliquots were assessed by immunoblot to label the active form of cathepsin B (CatB-30). As described in FIG. 4, the flavonols of fisetin at 5 μM (top graph of FIG. 4) or myricetin at 5 μM (bottom graph of FIG. 4) were added to the two daily PADK treatments of rodent hippocampal slice cultures. The non-treated (NT) and treated slices were harvested, homogenates were prepared, and equal protein aliquots were assessed by immunoblot to label the active form of cathepsin B (CatB-30). As described in FIG. 5, the flavonols of quercetin (Q), fisetin (F), and myricetin (M) at 5-10 μM were applied daily to rodent hippocampal slice cultures that were also treated with 3 μM PADK (top graph) or 10 μM PADK (bottom graph). […]"}, "[2]": {"system": "CatB-30", "experiment": "Oral dosing in peanut butter pellets to middle-aged mice, dissected hippocampi: CatB-30", "format": "in vivo", "conditions": "oral twice daily for 11 days, hippocampus, vs control compound", "method": "(§1) Compounds in peanut butter pellets were administered to middle-aged mice orally twice daily for 11 days, then dissected hippocampi were compared to control mice that received the same oral dosing with control compound."}, "[3]": {"system": "synaptic marker GluR1", "experiment": "Oral dosing in peanut butter pellets to middle-aged mice, dissected hippocampi: synaptic marker GluR1", "format": "in vivo", "conditions": "oral twice daily for 11 days, hippocampus, vs control compound", "method": "as §1"}, "[4]": {"conditions": "flavonol at 5 and 10 μM daily with 3 μM PADK, two days"}},
  "note": "Where a SMILES comes first, the peptide text is derived from it. The star is where a group is joined. Cbz = O=C(OCc1ccccc1)*",
  "data": [
    {"smiles": "O=C(N[C@@H](Cc1ccccc1)C(=O)N1CCC[C@H]1C(=O)O)OCc1ccccc1", "note": "[Z-Phe-Pro-OH, N-carbobenzoxy-L-phenylalanyl-L-proline] (Cbz-Phe-Pro-OH)", "values": [
      {"measurement": "levels of cathepsin B (summary in words)", "setting": "[1]", "result": "increase levels of cathepsin B"}
    ]},
    {"smiles": "O=c1c(O)c(-c2ccc(O)c(O)c2)oc2cc(O)ccc12", "note": "[fisetin]", "values": [
      {"measurement": "enhancement of the PADK effect on CatB-30", "setting": "[1]; 5 μM fisetin added to two daily treatments with 10 μM PADK", "result": "95-140%"},
      {"measurement": "increase in CatB-30 by flavonol alone", "setting": "[1]", "result": 40, "unit": "%"},
      {"measurement": "increase in cathepsin B (CatB-30)", "setting": "[1]; 5-30 μM fisetin applied daily, two days", "result": 1.65, "unit": "fold"},
      {"measurement": "enhancement of the PADK effect on CatB-30 (in words)", "setting": "[1]; [4]", "result": "only the higher 10 μM concentration of fisetin enhanced the effect"},
      {"measurement": "effect of the cathepsin B positive modulator PADK in combination with flavonol (summary in words)", "setting": "[1]", "result": "enhance the effect"},
      {"measurement": "levels of cathepsin B (summary in words)", "setting": "[1]", "result": "increase levels of cathepsin B"}
    ]},
    {"smiles": "O=c1c(O)c(-c2cc(O)c(O)c(O)c2)oc2cc(O)cc(O)c12", "note": "[myricetin]", "values": [
      {"measurement": "enhancement of the PADK effect on CatB-30 (in words)", "setting": "[1]; 5 μM myricetin added to two daily treatments with 10 μM PADK, one-tailed p=0.033", "result": "smaller enhancement"},
      {"measurement": "enhancement of the PADK effect on CatB-30 (in words)", "setting": "[1]; [4]", "result": "no enhancing effect at either concentration"},
      {"measurement": "effect of the cathepsin B positive modulator PADK in combination with flavonol (summary in words)", "setting": "[1]", "result": "enhance the effect"},
      {"measurement": "levels of cathepsin B (summary in words)", "setting": "[1]", "result": "increase levels of cathepsin B"}
    ]},
    {"smiles": "O=c1c(O)c(-c2ccc(O)c(O)c2)oc2cc(O)cc(O)c12", "note": "[quercetin]", "values": [
      {"measurement": "CatB-30 in female mice", "setting": "[2]; female middle-aged mice", "result": "increased CatB-30 in female mice"},
      {"measurement": "CatB-30 in male mice", "setting": "[2]; male middle-aged mice", "result": "increased CatB-30 in male mice"},
      {"measurement": "increase in CatB-30 by flavonol alone", "setting": "[1]", "result": 21, "unit": "%"},
      {"measurement": "enhancement of the PADK effect on CatB-30", "setting": "[1]; 5 μM quercetin added to the daily PADK treatments, two days", "result": "60-70%"},
      {"measurement": "increase in cathepsin B (CatB-30)", "setting": "[1]; 5-20 μM quercetin applied daily, two days", "result": 1.96, "unit": "fold"},
      {"measurement": "enhancement of the PADK effect on CatB-30 (in words)", "setting": "[1]; [4]", "result": "both 5 and 10 μM quercetin enhanced the PADK effect"},
      {"measurement": "effect of the cathepsin B positive modulator PADK in combination with flavonol (summary in words)", "setting": "[1]", "result": "enhance the effect"},
      {"measurement": "levels of cathepsin B (summary in words)", "setting": "[1]", "result": "increase levels of cathepsin B"},
      {"measurement": "synaptic marker GluR1", "setting": "[3]", "result": "enhanced synaptic marker GluR1"}
    ]}
  ]
}
